In publication PMC8348983 (International Journal of Molecular Sciences, 2021):
Entries after “also recorded” stand apart in the source; their conditions may differ. Read-outs that look alike come from different tables or passages of the source.

Tests used:
[1] = target: POP (prolyloligopeptidase) (Homo sapiens, UniProt P48147); experiment: POP inhibition assay; assay type: biochemical; conditions: bounds marked f: highest tested concentration due to low solubility in buffer; read-out: IC50, POP ± SEM
Sequence of POP (prolyloligopeptidase) (P48147 whole entry): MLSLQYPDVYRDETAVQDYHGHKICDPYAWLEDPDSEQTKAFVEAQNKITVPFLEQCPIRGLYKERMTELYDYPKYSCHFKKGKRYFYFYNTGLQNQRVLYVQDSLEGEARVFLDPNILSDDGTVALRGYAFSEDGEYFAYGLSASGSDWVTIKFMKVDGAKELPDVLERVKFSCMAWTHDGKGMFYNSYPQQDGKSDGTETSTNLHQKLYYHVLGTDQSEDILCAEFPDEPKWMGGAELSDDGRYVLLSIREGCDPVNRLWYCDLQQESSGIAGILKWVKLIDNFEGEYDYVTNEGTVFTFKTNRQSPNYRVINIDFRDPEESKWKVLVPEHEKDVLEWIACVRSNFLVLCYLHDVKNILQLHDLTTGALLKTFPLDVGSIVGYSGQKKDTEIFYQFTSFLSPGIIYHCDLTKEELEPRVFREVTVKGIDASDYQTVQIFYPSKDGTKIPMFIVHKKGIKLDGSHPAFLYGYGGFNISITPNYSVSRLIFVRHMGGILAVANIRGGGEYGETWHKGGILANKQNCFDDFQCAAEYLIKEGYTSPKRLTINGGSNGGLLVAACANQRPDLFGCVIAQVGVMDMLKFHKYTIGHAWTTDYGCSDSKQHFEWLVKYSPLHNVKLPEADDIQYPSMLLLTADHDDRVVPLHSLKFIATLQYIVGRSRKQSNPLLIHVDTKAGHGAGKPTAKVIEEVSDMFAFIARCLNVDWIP
Method: The previously applied procedure was used. Detailed description of the assay can be found in Supplementary Materials.
POP (EC 3.4.21.26) was dissolved in phosphate-buffered saline (PBS; 0.01 M Na/K phosphate buffer, […]
The assay was performed in standard polystyrene 96-well microplates with a flat and clear bottom.
Stock solutions of tested compounds were prepared in DMSO (10 mM). Dilutions (10−3 to 10−7 M) were prepared from the stock solution with deionized H2O; the control was performed with the same DMSO concentration. POP substrate, (Z)-Gly-Pro-p-nitroanilide, was dissolved in 50% 1,4-dioxane (5 mM). For each reaction, PBS (170 μL), tested compound (5 μL), and POP (5 μL) were incubated for 5 min at 37 °C. Then, substrate (20 μL) was added, and the microplate was incubated for 30 min at 37 °C. The formation of p-nitroanilide, directly proportional to the POP activity, was measured […]
Synergy 2, BioTek Instruments, Winooski, VT). The inhibition potency of tested compounds was calculated by nonlinear regression analysis and was expressed as an IC50 value (concentration of inhibitor which causes 50% POP inhibition). […]

[2] = target: T1, human recombinant AChE (Homo sapiens, UniProt P22303); experiment: biochemical; assay type: biochemical; conditions: for IC50: mean ± SEM of three independent measurements, each in triplicate, read-out: IC50, hAChE ± SEM; for inhibition at 100 µM: tested at 100 µM compound concentration, read-out: %Inhibition hAChE ± SEM
T1 sequence (P22303 32-614): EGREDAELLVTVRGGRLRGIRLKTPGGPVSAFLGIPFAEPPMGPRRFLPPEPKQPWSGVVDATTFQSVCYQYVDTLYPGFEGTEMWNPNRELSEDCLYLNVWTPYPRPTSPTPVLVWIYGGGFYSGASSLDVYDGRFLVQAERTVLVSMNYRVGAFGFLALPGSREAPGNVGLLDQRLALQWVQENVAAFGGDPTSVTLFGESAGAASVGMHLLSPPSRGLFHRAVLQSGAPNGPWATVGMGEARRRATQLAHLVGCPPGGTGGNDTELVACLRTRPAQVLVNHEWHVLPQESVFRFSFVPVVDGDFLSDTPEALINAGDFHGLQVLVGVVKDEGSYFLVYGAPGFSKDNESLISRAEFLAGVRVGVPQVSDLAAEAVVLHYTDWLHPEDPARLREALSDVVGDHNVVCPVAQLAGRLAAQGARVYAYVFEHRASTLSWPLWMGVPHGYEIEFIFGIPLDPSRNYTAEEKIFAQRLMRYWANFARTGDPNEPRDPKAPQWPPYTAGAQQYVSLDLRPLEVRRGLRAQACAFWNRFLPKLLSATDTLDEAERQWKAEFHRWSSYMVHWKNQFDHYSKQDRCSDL

[3] = target: T2, human plasma BChE (Homo sapiens, UniProt P06276); experiment: biochemical; assay type: biochemical; conditions: for IC50: mean ± SEM of three independent measurements, each in triplicate, read-out: IC50, hBuChE ± SEM; for SI for hBuChE: ratio hAChE IC50/hBuChE IC50; for inhibition at 100 µM: tested at 100 µM compound concentration, read-out: % Inhibition hBuChE ± SEM
T2 construct: was used as a source of BChE and was prepared from heparinized human blood; from tissue; host or cells: human plasma from heparinized human blood
T2 sequence (P06276 29-602): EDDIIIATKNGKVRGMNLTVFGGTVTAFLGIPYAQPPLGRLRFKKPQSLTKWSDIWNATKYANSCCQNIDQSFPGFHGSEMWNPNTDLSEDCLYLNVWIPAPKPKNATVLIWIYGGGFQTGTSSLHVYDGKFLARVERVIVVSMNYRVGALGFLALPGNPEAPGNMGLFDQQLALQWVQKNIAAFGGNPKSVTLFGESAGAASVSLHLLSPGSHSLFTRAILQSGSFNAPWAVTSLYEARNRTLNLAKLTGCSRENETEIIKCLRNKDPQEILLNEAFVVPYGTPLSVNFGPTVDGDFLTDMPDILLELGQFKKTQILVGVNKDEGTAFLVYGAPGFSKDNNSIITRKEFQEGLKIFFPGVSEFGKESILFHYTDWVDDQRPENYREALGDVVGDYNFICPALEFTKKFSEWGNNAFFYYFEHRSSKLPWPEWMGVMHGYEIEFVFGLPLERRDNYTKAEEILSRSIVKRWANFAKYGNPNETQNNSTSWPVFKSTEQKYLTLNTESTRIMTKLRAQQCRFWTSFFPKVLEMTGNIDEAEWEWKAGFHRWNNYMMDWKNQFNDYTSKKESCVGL

[4] = target: T1, human recombinant AChE; set-up: method as in PMID 32455879; conditions: template alkaloids, Figure 1; read-out: IC50,hAChE; cited from earlier work

COc1cc(CNCCc2ccc(O)cc2)ccc1OCc1ccccc1 [Compound 1, N-(4-benzyloxy-3-methoxybenzyl)-2-(4-hydroxyphenyl)ethan-1-amine]
IC50 [1]: 186 ± 14 µM
IC50 [2]: > 100 µM
inhibition at 100 µM [2]: 30.4 ± 2.1%
IC50 [3]: 0.36 ± 0.03 µM
SI for hBuChE [3]: >277
inhibition at 100 µM [3]: 98.7 ± 0.3%

COc1ccc(CNCCc2ccc(O)cc2)cc1OCc1ccccc1 [Compound 2, N-(3-benzyloxy-4-methoxybenzyl)-2-(4-hydroxyphenyl)ethan-1-amine]
IC50 [1]: > 79 µM
IC50 [2]: > 100 µM
inhibition at 100 µM [2]: 35.8 ± 1.2%
IC50 [3]: 0.29 ± 0.02 µM
SI for hBuChE [3]: >348
inhibition at 100 µM [3]: 97.7 ± 0.5%

C=CCN(CCc1ccc(O)cc1)Cc1ccc(OCc2ccccc2)c(OC)c1 [Compound 3, N-allyl-N-(4-benzyloxy-3-methoxybenzyl)-2-(4-hydroxyphenyl)ethan-1-amine]
IC50 [1]: > 200 µM
IC50 [2]: > 100 µM
inhibition at 100 µM [2]: 20.8 ± 0.9%
IC50 [3]: 0.61 ± 0.04 µM
SI for hBuChE [3]: >163
inhibition at 100 µM [3]: 96.8 ± 1.1%

C=CCN(CCc1ccc(O)cc1)Cc1ccc(OC)c(OCc2ccccc2)c1 [Compound 4, N-allyl-N-(3-benzyloxy-4-methoxybenzyl)-2-(4-hydroxyphenyl)ethan-1-amine]
IC50 [1]: > 79 µM
IC50 [2]: > 100 µM
inhibition at 100 µM [2]: 45.2 ± 2.4%
IC50 [3]: 0.25 ± 0.01 µM
SI for hBuChE [3]: >394
inhibition at 100 µM [3]: 97.9 ± 0.6%

C=CCOc1ccc(CCN(CC=C)Cc2ccc(OCc3ccccc3)c(OC)c2)cc1 [Compound 5, N-allyl-N-(4-benzyloxy-3-methoxybenzyl)-2-(4-allyloxyphenyl)ethan-1-amine]
IC50 [2]: > 100 µM
hAChE inhibition potency (in words) ([2]; screening at 100 µM): no inhibition potency
inhibition at 100 µM [2]: 3.4 ± 0.5%
IC50 [3]: > 100 µM
hBuChE inhibition potency (in words) ([3]; screening at 100 µM): no inhibition potency; also recorded: inactive
inhibition at 100 µM [3]: 38.9 ± 0.9%

COc1cc(CNCCc2ccccc2)ccc1OCc1ccccc1 [Compound 7, N-(4-benzyloxy-3-methoxybenzyl)-2-phenylethan-1-amine]
IC50 [2]: > 100 µM
inhibition at 100 µM [2]: 23.4 ± 2.5%
IC50 [3]: 1.28 ± 0.05 µM
SI for hBuChE [3]: >78
inhibition at 100 µM [3]: 94.5 ± 0.9%

COc1ccc(CNCCc2ccccc2)cc1OCc1ccccc1 [Compound 8, N-(3-benzyloxy-4-methoxybenzyl)-2-phenylethan-1-amine]
IC50 [2]: > 100 µM
inhibition at 100 µM [2]: 12.6 ± 0.5%
IC50 [3]: 1.1 ± 0.05 µM
SI for hBuChE [3]: >90
inhibition at 100 µM [3]: 96.6 ± 0.4%

C=CCN(CCc1ccccc1)Cc1ccc(OCc2ccccc2)c(OC)c1 [Compound 9, N-allyl-N-(4-benzyloxy-3-methoxybenzyl)-2-phenylethan-1-amine]
IC50 [2]: > 100 µM
inhibition at 100 µM [2]: 18.8 ± 1.9%
IC50 [3]: 5.19 ± 0.28 µM
SI for hBuChE [3]: >19
inhibition at 100 µM [3]: 74.9 ± 2.4%

C=CCN(CCc1ccccc1)Cc1ccc(OC)c(OCc2ccccc2)c1 [Compound 10, N-allyl-N-(3-benzyloxy-4-methoxybenzyl)-2-phenylethan-1-amine]
IC50 [2]: 21.5 µM
inhibition at 100 µM [2]: 72.4 ± 1.1%
IC50 [3]: 1.17 ± 0.04 µM
SI for hBuChE [3]: 18
inhibition at 100 µM [3]: 92 ± 2.4%

COc1ccc(CCNCc2ccc(OCc3ccccc3)c(OC)c2)cc1 [Compound 11, {[4-(benzyloxy)-3-methoxyphenyl]methyl}[2-(4-methoxyphenyl)ethyl]amine]
IC50 [2]: > 100 µM
inhibition at 100 µM [2]: 27.9 ± 0.7%
IC50 [3]: 2.39 ± 0.27 µM
SI for hBuChE [3]: >41
inhibition at 100 µM [3]: 93.5 ± 0.3%

COc1ccc(CCNCc2ccc(OC)c(OCc3ccccc3)c2)cc1 [Compound 12, N-(3-benzyloxy-4-methoxybenzyl)-2-(4-methoxyphenyl)ethan-1-amine]
IC50 [2]: > 100 µM
inhibition at 100 µM [2]: 0%
IC50 [3]: 1.12 ± 0.11 µM
SI for hBuChE [3]: >89
inhibition at 100 µM [3]: 94.6 ± 0.6%

C=CCN(CCc1ccc(OC)cc1)Cc1ccc(OCc2ccccc2)c(OC)c1 [Compound 13, N-allyl-N-(4-benzyloxy-3-methoxybenzyl)-2-(4-methoxyphenyl)ethan-1-amine]
IC50 [2]: > 100 µM
inhibition at 100 µM [2]: 32.7 ± 1.6%
IC50 [3]: 2.72 ± 0.5 µM
SI for hBuChE [3]: >37
inhibition at 100 µM [3]: 90.9 ± 1.5%

C=CCN(CCc1ccc(OC)cc1)Cc1ccc(OC)c(OCc2ccccc2)c1 [Compound 14, N-allyl-N-(3-benzyloxy-4-methoxybenzyl)-2-(4-methoxyphenyl)ethan-1-amine]
IC50 [2]: 37.7 µM
inhibition at 100 µM [2]: 60.9 ± 0.4%
IC50 [3]: 0.38 ± 0.01 µM
SI for hBuChE [3]: 98
inhibition at 100 µM [3]: 95.8 ± 0.9%

CCOc1cc(CNCCc2ccc(O)cc2)ccc1OC [Compound 15, N-(3-ethoxy-4-methoxybenzyl)-2-(4-hydroxyphenyl)ethan-1-amine]
IC50 [2]: > 100 µM
inhibition at 100 µM [2]: 25.8 ± 1.3%
IC50 [3]: 15.1 ± 2.34 µM
SI for hBuChE [3]: >6
inhibition at 100 µM [3]: 75.3 ± 0.6%

C=CCN(CCc1ccc(O)cc1)Cc1ccc(OC)c(OCC)c1 [Compound 16, N-allyl-N-(3-ethoxy-4-methoxybenzyl)-2-(4-hydroxyphenyl)ethan-1-amine]
IC50 [2]: > 100 µM
inhibition at 100 µM [2]: 28.3 ± 1.1%
IC50 [3]: 1.21 ± 0.08 µM
SI for hBuChE [3]: >82
inhibition at 100 µM [3]: 91.7 ± 0.4%

C=CCOc1ccc(CCN(CC=C)Cc2ccc(OC)c(OCC)c2)cc1 [Compound 17, N-allyl-N-(3-ethoxy-4-methoxybenzyl)-2-(4-allyloxyphenyl)ethan-1-amine]
IC50 [2]: > 100 µM
inhibition at 100 µM [2]: 29.3 ± 3.9%
IC50 [3]: 9.89 ± 1.37 µM
inhibition at 100 µM [3]: 77 ± 1%

CCOc1cc(CNCCc2ccccc2)ccc1OC [Compound 18, N-(3-ethoxy-4-methoxybenzyl)-2-phenylethan-1-amine]
IC50 [2]: > 100 µM
inhibition at 100 µM [2]: 0%
IC50 [3]: 41.1 ± 2.6 µM
SI for hBuChE [3]: >2
inhibition at 100 µM [3]: 60 ± 1.6%

C=CCN(CCc1ccccc1)Cc1ccc(OC)c(OCC)c1 [Compound 19, N-allyl-N-(3-ethoxy-4-methoxybenzyl)-2-phenylethan-1-amine]
IC50 [2]: > 100 µM
inhibition at 100 µM [2]: 5.9 ± 2.1%
IC50 [3]: 4.63 ± 0.48 µM
SI for hBuChE [3]: >22
inhibition at 100 µM [3]: 80.2 ± 0.2%

CCOc1cc(CN(CCc2ccccc2)Cc2ccccc2)ccc1OC [Compound 20, N-benzyl-N-(3-ethoxy-4-methoxybenzyl)-2-phenylethan-1-amine]
IC50 [2]: > 100 µM
inhibition at 100 µM [2]: 49.5 ± 0.8%
IC50 [3]: 0.69 ± 0.03 µM
SI for hBuChE [3]: >145
inhibition at 100 µM [3]: 82.5 ± 1%

COc1cc(CN(C)CCc2ccc(O)cc2)c(-c2cccc3c2N(C)CC3)cc1OC [carltonine A]
IC50 [4]: > 100 µM

CN(CCc1ccc(O)cc1)Cc1cc2c(cc1-c1cccc3c1N(C)CC3)OCO2 [carltonine B]
IC50 [4]: > 100 µM
